Values quoted from earlier work in US20090202995A1, “MOLECULAR CARDIOTOXICOLOGY MODELING” (priority 2005, published 2009).
Like-named read-outs stand apart in the source and are kept apart here.

Key:
heart tissue [1] = tested on: heart tissue
heart tissue [2] = details: known designation used to train the model, at the dose, time and route of Table 3
heart tissue [3] = tested on: heart tissue; remark: listed apart in the source
heart tissue [4] = tested on: heart tissue; remark: listed apart in the source
heart tissue [5] = details: known designation used to train the model, at the dose, time and route of Table 3; remark: listed apart in the source
heart tissue [6] = details: known designation used to train the model, at the dose, time and route of Table 3; remark: listed apart in the source
[7] = known tox (1) / non-tox (−1) designation used to train the model, at the dose, time and route of Table 3
[8] = known designation used to train the model, at the dose, time and route of Table 3

Row | Compound | General (heart tissue [1]; [7]) | Andrenergic Agonist (heart tissue [2]) | Arrhythmia (heart tissue [3]; [8]) | Myocardial Necrosis (heart tissue [4]; [8]) | Vasculature Agent (heart tissue [5]) | Heart Failure (heart tissue [6]) | General (heart tissue [1]; rat, in vivo) | Arrhythmia (heart tissue [3]; rat, in vivo) | Myocardial Necrosis (heart tissue [4]; rat, in vivo)
1 | Nc1nc2c(ncn2COCCO)c(=O)[nH]1 [Acyclovir] | −1 | −1 | −1 | −1 | −1 | −1 | – | – | –
2 | COc1cccc2c1C(=O)c1c(O)c3c(c(O)c1C2=O)C[C@@](O)(C(=O)CO)C[C@@H]3O[C@H]1C[C@H](N)[C@H](O)[C@H](C)O1 [Adriamycin] | 1 | −1 | −1 | 1 | −1 | 1 | – | – | –
3 | ClC(Cl)(Cl)Cl [CCl4] | −1 | −1 | −1 | −1 | −1 | −1 | – | – | –
4 | N.N.O=C([O-])C1(C(=O)[O-])CCC1.[Pt+2] [Carboplatin] | −1 | −1 | −1 | −1 | −1 | −1 | – | – | –
5 | N.N.[Cl][Pt][Cl] [Cisplatin] | 1 | −1 | 1 | 1 | −1 | −1 | – | – | –
6 | CC(C)(C)NCC(O)c1cc(Cl)c(N)c(Cl)c1 (stereo not shown) [Clenbuterol] | 1 | 1 | 1 | 1 | 1 | – | – | – | –
7 | O=P1(N(CCCl)CCCl)NCCCO1 (stereo not shown) [Cyclophosphamide] | 1 | −1 | −1 | −1 | −1 | 1 | – | – | –
8 | O=C1CN(/N=C/c2ccc(-c3ccc([N+](=O)[O-])cc3)o2)C(O)=N1 [Dantrolene] | 1 | −1 | 1 | −1 | – | 1 | – | – | –
9 | NCCc1ccc(O)c(O)c1 [Dopamine] | 1 | 1 | 1 | −1 | −1 | – | – | – | –
10 | CNC[C@H](O)c1ccc(O)c(O)c1 [Epinephrine] | 1 | 1 | 1 | 1 | −1 | −1 | – | – | –
11 | COc1cccc2c1C(=O)c1c(O)c3c(c(O)c1C2=O)C[C@@](O)(C(=O)CO)C[C@@H]3O[C@H]1C[C@H](N)[C@@H](O)[C@H](C)O1 [Epirubicin] | 1 | −1 | 1 | −1 | −1 | 1 | – | – | –
12 | NC(N)=Nc1nc(CSCCC(N)=NS(N)(=O)=O)cs1 [Famotidine] | 1 | −1 | 1 | −1 | −1 | −1 | – | – | –
13 | NNc1nncc2ccccc12 [Hydralazine] | 1 | −1 | 1 | 1 | 1 | −1 | – | – | –
14 | CC(C)NCC(O)c1ccc(O)c(O)c1 (stereo not shown) [Isoproterenol] | 1 | 1 | 1 | 1 | – | – | – | – | –
15 | Nc1cc(N2CCCCC2)nc(N)[n+]1[O-] [Minoxidil] | 1 | −1 | 1 | 1 | 1 | 1 | – | – | –
16 | C[C@H]1C(=O)O[C@@H]2CCN3CC=C(COC(=O)[C@](C)(O)[C@]1(C)O)[C@H]23 [Monocrotaline] | – | – | – | – | – | – | 1 | −1 | −1
17 | NC[C@H](O)c1ccc(O)c(O)c1 [Norephinephrine] | 1 | 1 | 1 | 1 | – | −1 | – | – | –
18 | Fc1ccc([C@@H]2CCNC[C@H]2COc2ccc3c(c2)OCO3)cc1 [Paroxetine] | 1 | – | 1 | −1 | – | – | – | – | –
19 | N=C(N)c1ccc(OCCCCCOc2ccc(C(=N)N)cc2)cc1 [Pentamidine] | 1 | – | 1 | −1 | – | −1 | – | – | –
20 | CC(N)C(O)c1ccccc1 (stereo not shown) [Phenylpropanolamine] | 1 | – | 1 | – | – | −1 | – | – | –
21 | CN(CCOc1ccc(CC2SC(=O)NC2=O)cc1)c1ccccn1 (stereo not shown) [Rosiglitazone] | 1 | – | – | – | – | 1 | – | – | –
22 | Cn1nnc2c(C(N)=O)ncn2c1=O [Temozolomide] | −1 | – | −1 | −1 | – | −1 | – | – | –
